{"source": "patent US10060933B2", "about": "“Methods for diagnosis and treatment of amyotrophic lateral sclerosis based on an increased level of interaction between TDP-43 polypeptide and NF-KB P65 polypeptide” (UNIVERSITE LAVAL, priority 2011, dated 2018)", "key": {"[1]": {"tested_on": "GFAP", "experiment": "GFAP immunofluorescence of spinal cord sections", "format": "in vivo, mouse", "settings": "GFAP-luc/TDP-43^Wt mice, treated vs untreated", "experimental": "(§1) To study the in vivo effect of NF-κB inhibition on disease progression, we injected TDP-43^wt; GFAP-luc double transgenic mice with 3 mg/kg body weight of WA twice a week for 10-weeks starting at 30-weeks. […] We used TDP-43^wt; GFAP-luc double transgenic mice because the reporter luciferase (luc) allowed the longitudinal and non-invasive biophotonic imaging with CCD camera of the GFAP promoter activity which is a target of activated NF-κB. To analyse the spatial and temporal dynamics of astrocytes activation/GFAP induction in TDP-43 mouse model, we performed series of live imaging experiments. […] The downregulation of GFAP promoter activity was further confirmed in these mice using GFAP immunofluorescence of spinal cord sections of TDP-43^Wt mice (both drug-treated and untreated) (FIG. 8F). […] Down-regulation of GFAP along with reduction in active p65 levels in withaferin treated mice prompted us to analyse behavioural changes in these mice. […] The withaferin treated mice also had 40% reduction in the number of partially denervated neuromuscular junction (NMJ) (FIGS. 8E&G).\n(§2) 4% Paraformaldehyde (PFA) fixed spinal cord and brain sections of mice were sectioned and fixed on slides. For immunohistochemistry, tissues were treated with hydrogen-peroxide solution before permeabilisation. […]"}, "[2]": {"biological_target": "T1, p65 (Mus musculus, UniProt Q04207)", "T1 construct": "from tissue; host or cells: spinal cord of GFAP-luc/TDP-43^Wt transgenic mice (nuclear lysates)", "experiment": "p65 EMSA on spinal cord tissue nuclear lysates", "format": "in vivo", "settings": "treated vs untreated GFAP-luc/TDP-43^Wt mice", "experimental": "as §1\n48 hrs after transfection of CMV-p65 with pCMV-TDP43^WT or pCMV-TDP43^G348C and treatment with LPS, BV-2 cells were harvested and nuclear extracts prepared. […] Concentrations of nuclear proteins were determined on diluted samples using a Bradford assay (Biorad). […]"}, "[3]": {"tested_on": "neuromuscular junctions", "experiment": "Neuromuscular junction staining and count", "format": "in vivo, mouse", "procedure": "For monitoring the neuromuscular junctions, 25 mm thick muscle sections were incubated for 1 h in 0.1 M glycine in PBS for 2 h at RT and then stained with Alexa Fluor 594-conjugated α-bungarotoxin (1:2000, Molecular Probes/Invitrogen detection technologies, Carlsbad, Calif., USA) diluted in 3% BSA in PBS for 3 h at RT. After washing in PBS, the muscle sections were blocked in 3% BSA, 10% goat serum and 0.5% Triton X-100 in PBS overnight at 48° C. The next day, the sections were incubated with mouse antineurofilament antibody 160 K (1:2000, Temecula, Calif., USA) and mouse anti-synaptophysin (Dako, Mississauga, ON, Canada) in the same blocking solution overnight at 48° C. After washing for 5 h, muscle sections were incubated with goat anti-mouse Alexa Fluor 488-conjugated secondary antibody (Probes/Invitrogen detection technologies, Carlsbad, Calif., USA) diluted 1:500 in blocking buffer for 3 h at RT. Three hundred neuromuscular junctions were counted per animal sample, discriminating both innervated and denervated junctions as described above. […]"}, "[4]": {"tested_on": "TDP-43^G348C mice", "experiment": "Accelerating rotarod in TDP-43^G348C mice", "format": "in vivo, mouse", "settings": "WA-treated vs untreated TDP-43^G348C mice", "experimental": "Accelerating rotarod analysis was performed in TDP-43^G348C mice at various ages from 8 wk to 52 wk, and time taken by the mice to fall from the rotarod is used as rotarod performance. WA treatment period is marked as drug treatment period. Error bars represent mean±SEM (n=10 each group) (FIG. 25).\nAccelerating rotarod was performed on mice at 4 rpm speed with 0.25 rpm/sec acceleration as described elsewhere^30. Mice were subjected to three trials per session and every two weeks."}, "[5]": {"tested_on": "Mac-2 positive cells", "experiment": "Activated microglia (Mac-2, Cox-2) in spinal cord sections", "format": "in vivo, mouse", "experimental": "as §1, §2"}, "[6]": {"experiment": "Detection of Withaferin A in the CSF of mice using HPLC", "format": "in vivo, mouse", "experimental": "FIG. 15. Detection of Withaferin A in the CSF of mice using HPLC. […] For blank samples (B), 0.9% saline was injected in non-transgenic mice. 1.5 hrs after injection, CSF samples from the mice were obtained using […] into the cistern magna. 50 μl of the sample was mixed with 60% ACN 0.1% formic acid, centrifuged and the supernatant was injected into HPLC. […] 1000 ng/ml withaferin-a chemical served as a standard (C). Withaferin retention time was 1.6 mins."}, "[7]": {"tested_on": "peripherin", "experiment": "Peripherin immunofluorescence and immunoblot of spinal cord", "format": "in vivo, mouse", "settings": "TDP-43^Wt mice, treated vs untreated", "experimental": "as §1\nSnap frozen spinal cords of mice were harvested with lysis buffer containing 25 mM HEPES-NaOH (pH 7.9), 150 mM NaCl, 1.5 mM MgCl2, 0.2 mM EDTA, 0.5% Triton-X-100, 1 mM dithiothreitol and protease inhibitor cocktail. Protein samples were estimated using Bradford method. The lysate was incubated with 50 μl of Dynabeads (Protein-G beads, Invitrogen), anti-TDP-43 polyclonal (ProteinTech, Chicago, Ill., USA) or anti-peripherin polyclonal antibody (AB1530, Chemicon, Billerica, Mass., USA). After subsequent washing, the beads were incubated overnight at 4° C. with […] of tissue lysate. Antibody-bound complexes were eluted by boiling in Laemmli sample buffer. Supernatants were resolved by 10% SDS-PAGE and transferred on nitrocellulose membrane (Biorad, Hercules, Calif., USA). The membrane was incubated with anti-ubiquitin antibody (1:1000, Abcam, Cambridge, Mass., USA). For other western blot assays, blots were incubated with primary antibodies against human monoclonal TARDBP antibody (1:1000, Abnova, clone E2-D3), peripherin polyclonal (1:1000, Chemcion—AB1530), peripherin monoclonal (1:500, Chemicon, AB1527), Clone NR4 for NF-L (1:1000, Sigma), Clone NN18 for NF-M (1:1000, Millipore) and Clone N52 for NF-H (1:1000, Millipore). Immunoreactive proteins were then visualized by chemiluminescence (Perkin and Elmer, Santa Clara, Calif., USA) as described previously (Dequen et al., 2008). Actin (1:10000, Chemicon) is used as a loading control.\nas §2"}}, "note": "“Also recorded” adds a separate entry of the source.", "data": [{"smiles": "CC1=C(CO)C(=O)O[C@@H]([C@@H](C)[C@H]2CC[C@H]3[C@@H]4C[C@H]5O[C@]56[C@@H](O)C=CC(=O)[C@]6(C)[C@H]4CC[C@]23C)C1", "note": "[Withaferin A]", "values": [{"measurement": "GFAP activation (GFAP immunofluorescence of spinal cord sections)", "setting": "[1]", "result": "downregulation; also recorded: significantly low GFAP activation"}, {"measurement": "nuclear active p65 (EMSA)", "setting": "[2]", "result": "reduced amount of active p65; also recorded: much reduced nuclear active p65"}, {"measurement": "reduction in the number of partially denervated neuromuscular junction (NMJ)", "setting": "[3]; withaferin treated TDP-43^Wt mice vs untreated", "result": 40, "unit": "%"}, {"measurement": "number of partially denervated muscle (NMJ frequency)", "setting": "[3]; withaferin treated TDP-43^Wt mice, age-matched untreated 15±5%", "result": "9±4", "unit": "%"}, {"measurement": "motor performance (accelerating rotarod, time to fall)", "setting": "[4]", "result": "significantly better motor performance"}, {"measurement": "Mac-2^+ cells in L5 spinal cord", "setting": "[5]; TDP-43^Wt (Withaferin treated) mice, untreated 13000±500/mm^3", "result": "6000±300 /mm^3"}, {"measurement": "activated microglia (Mac-2 and Cox-2 double immunofluorescence)", "setting": "[5]; TDP-43^Wt mice, treated vs untreated", "result": "marked reduction in activated microglia"}, {"measurement": "Withaferin A in CSF (HPLC)", "setting": "[6]; 3 mg/kg intra-peritoneally, CSF 1.5 hrs after injection, 8-months old non-transgenic and TDP-43^Wt mice", "result": "presence of Withaferin-A"}, {"measurement": "passage of the blood-brain barrier", "setting": "[6]; mice, FIG. 15", "result": "passes the blood-brain barrier"}, {"measurement": "peripherin in spinal cord (immunofluorescence, polyclonal antibody)", "setting": "[7]; listed as Withaferin", "result": "reduced levels of peripherin"}, {"measurement": "peripherin levels in spinal cord (western blot / immunoblot, monoclonal antibody)", "setting": "[7]; listed as Withaferin", "result": "reduced levels of peripherin"}, {"measurement": "peripherin in spinal cord (immunofluorescence, polyclonal antibody)", "setting": "[7]; listed as withaferin", "result": "reduction of peripherin aggregates"}, {"measurement": "peripherin levels in spinal cord (western blot / immunoblot, monoclonal antibody)", "setting": "[7]; listed as withaferin", "result": "reduced"}]}]}
